Literature values in patent publication US9937166B2 (INFLAMMATORY RESPONSE RESEARCH, INC., priority 2013, dated 2018).
Read-outs that look alike come from different tables or passages of the source.

Tests used:
ALI/ARDS = details: in vivo
H1 receptor = H1 receptor (Homo sapiens, UniProt P35367); details: acidic pH, inflamed tissue
[1] = in vivo
[2] = test system: IL-4, IL-6, IL-8, ICAM-1, TLR3, NF-kappa B
[3] = test system: histamine induced wheal and flare
[4] = not given; remark: listed apart in the source
[5] = for Time to reach steady state level: administered orally
influenza = details: in vivo

H1 receptor, sequence (P35367 whole entry): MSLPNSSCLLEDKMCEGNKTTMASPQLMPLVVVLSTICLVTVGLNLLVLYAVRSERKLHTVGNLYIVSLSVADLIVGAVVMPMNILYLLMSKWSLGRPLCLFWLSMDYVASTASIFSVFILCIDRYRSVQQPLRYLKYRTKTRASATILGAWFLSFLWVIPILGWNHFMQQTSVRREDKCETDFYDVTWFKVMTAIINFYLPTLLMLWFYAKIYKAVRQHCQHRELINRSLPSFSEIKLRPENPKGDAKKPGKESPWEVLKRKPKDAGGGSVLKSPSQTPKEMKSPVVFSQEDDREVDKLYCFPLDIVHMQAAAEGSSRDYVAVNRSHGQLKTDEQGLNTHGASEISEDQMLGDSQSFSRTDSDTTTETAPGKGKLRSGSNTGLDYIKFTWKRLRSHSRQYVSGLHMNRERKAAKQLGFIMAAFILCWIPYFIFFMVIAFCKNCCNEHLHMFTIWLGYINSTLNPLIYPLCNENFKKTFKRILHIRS

CC(=O)N[C@@H](CS)C(=O)O [N-acetylcysteine]
Outcome in large trials for ALI/ARDS (ALI/ARDS): failed

CCCCC[C@H](O)/C=C/[C@H]1[C@H](O)CC(=O)[C@@H]1CCCCCCC(=O)O [alprostadil]
Outcome in large trials for ALI/ARDS (ALI/ARDS): failed

CC(=O)N1CCN(c2ccc(OCC3COC(Cn4ccnc4)(c4ccc(Cl)cc4Cl)O3)cc2)CC1 (centres unmarked) [ketoconazole]
Outcome in large trials for ALI/ARDS (ALI/ARDS): failed

O=C(O)COCCN1CCN([C@H](c2ccccc2)c2ccc(Cl)cc2)CC1 [levocetirizine]
Enhanced receptor affinity over first generation mepyramine / first generation molecules (H1 receptor): up to 5 × | Enhanced receptor affinity over first generation mepyramine / first generation molecules (H1 receptor; listed as Levocetirizine): 5 × | Steady-state level (time to) [1]: 40 h | Rhinovirus-induced ICAM-1 and cytokine expression and viral replication (airway epithelial cells): inhibits | Inflammatory mediators IL-4, IL-6, and IL-8 [2]: decrease | ICAM-1, IL-6, IL-8, TLR3 expression and NF-kappa B activation ([2]; in vivo (so in the source)): decrease | Principal side effect experienced at higher doses (higher doses): Sedation | Doses that can be safely administered (humans): up to 30 mg/day | Eosinophil migration (eosinophil migration): decrease | Potency among the five modern generation antihistamines ([3]; histamine induced wheal and flare data): most potent | Effectiveness compared with fexofenadine ([3]; levocetirizine 5 mg per day vs fexofenadine 180 mg per day): more effective

C[C@@H](O)CCCCn1c(=O)c2c(ncn2C)n(C)c1=O [lisofylline]
Outcome in large trials for ALI/ARDS (ALI/ARDS): failed

CC(C)(O)c1ccccc1CC[C@@H](SCC1(CC(=O)O)CC1)c1cccc(/C=C/c2ccc3ccc(Cl)cc3n2)c1 [montelukast]
Doses without clinically important adverse experiences ([4]; adult patients for 22 weeks): up to 200 mg/day | Doses without clinically important adverse experiences ([4]; short-term studies, approximately one week): up to 900 mg/day | Plasma concentration area under the curve profile, IV vs oral tablet ([5]; IV 7 mg vs approved 10 mg oral tablet): comparable | Time to reach steady state level [5]: two | Time to reach steady state level ([5]; listed as Montelukast): less than two | Absorption ([5]; in vivo): rapidly absorbed | Linear pharmacokinetics to dose ([5]; in vivo): ≤ 50 mg | Time to peak plasma concentration ([5]; in vivo): 3 to 4 h | Effect of a standard meal on oral bioavailability and C. ([5]; standard meal): not affected

CCOC(=O)C1=C[C@@H](OC(CC)CC)[C@H](NC(C)=O)[C@@H](N)C1 [oseltamivir]
Influenza related lower respiratory tract complications (influenza): did not appear to reduce

O=C1N[C@H](C(=O)O)CS1 [procysteine]
Outcome in large trials for ALI/ARDS (ALI/ARDS): failed
